Laboratory results published in article PMC8373216, “Development and Preclinical Evaluation of New Inhaled Lipoglycopeptides for the Treatment of Persistent Pulmonary Methicillin-Resistant Staphylococcus aureus Infections” (Antimicrobial Agents and Chemotherapy, 2021).
≈ marks a conversion by molar mass, not a printed value. Where two headings read alike, the source gives them in different places.

Assays:
[1] = system: P. mirabilis; experiment: Expanded panel broth microdilution MIC; type: cell-based; conditions: Proteus mirabilis, ATCC43071; P. mirabilis ATCC 43071; read-out: MIC
[2] = system: MSSA ATCC 29213; experiment: In-house broth microdilution MIC screening; type: cell-based; conditions: Staphylococcus aureus; broth microdilution; read-out: MIC Value, MSSA ATCC 29213
[3] = system: Acinetobacter baumannii; experiment: Expanded panel broth microdilution MIC; type: cell-based; conditions: Acinetobacter baumannii; for MIC: read-out: MIC
[4] = system: Burkholderia cepacia; experiment: Expanded panel broth microdilution MIC; type: cell-based
[5] = system: Streptococcus pyogenes; experiment: Expanded panel broth microdilution MIC/MBC; type: cell-based; conditions: for MIC: Streptococcus pyogenes
[6] = system: C. freundii; experiment: Expanded panel broth microdilution MIC; type: cell-based; conditions: Citrobacter freundii; C. freundii MMX 6602; read-out: MIC
[7] = system: Staphylococcus haemolyticus; experiment: Expanded panel broth microdilution MIC; type: cell-based
[8] = system: Peptostreptococcus anaerobius; experiment: Expanded panel broth microdilution MIC; type: cell-based
[9] = system: Moraxella catarrhalis; experiment: Expanded panel broth microdilution MIC; type: cell-based
[10] = system: E. coli; experiment: Expanded panel broth microdilution MIC; type: cell-based; conditions: Escherichia coli, read-out: MIC
[11] = system: S. aureus; experiment: Expanded panel broth microdilution MIC/MBC; conditions: for MIC: Staphylococcus aureus

CCCCCCCCCCNCCN[C@@]1(C)C[C@H](O[C@H]2[C@H](Oc3c4cc5cc3Oc3ccc(cc3Cl)[C@@H](O)[C@@H](NC(=O)[C@@H](CC(C)C)NC)C(=O)N[C@@H](CC(N)=O)C(=O)N[C@H]5C(=O)N[C@H]3C(=O)N[C@H](C(=O)N[C@H](C(=O)O)c5cc(O)cc(O)c5-c5cc3ccc5O)[C@H](O)c3ccc(c(Cl)c3)O4)O[C@H](CO)[C@@H](O)[C@@H]2O)O[C@@H](C)[C@H]1O [RV40, N-decylaminoethylvancomycin]
MIC [1]: > 64 µg/mL | MIC [2]: 0.016 µg/mL (≈ 9.8 nM) | MIC range [3]: 32 to 64 µg/mL | MIC ([3]; A. baumannii MMX 3372, MDR): 64 µg/mL (≈ 39200 nM) | MIC ([3]; A. baumannii MMX 6974, colistinR): 32 µg/mL (≈ 19600 nM) | MIC ([3]; NCTC13304, A. baumannii NCTC 13304, OXA-27): > 64 µg/mL | MIC [4]: > 64 µg/mL | MIC ([4]; B. cepacia MMX 9040, read-out: MIC): > 64 µg/mL | MIC:MBC ([5]; S. pyogenes ermR): 1 | MIC ([5]; ATCC19615, S. pyogenes ATCC 19615, read-out: MIC): 0.06 µg/mL (≈ 36.8 nM) | MIC ([5]; S. pyogenes MMX 946, ermR, read-out: MIC): 0.008 µg/mL (≈ 4.9 nM) | MIC ([5]; S. pyogenes MMX 8778, read-out: MIC): 0.015 µg/mL (≈ 9.19 nM) | MIC ([5]; S. pyogenes ermR, 1 isolate, read-out: MIC): 0.008 µg/mL (≈ 4.9 nM) | MIC ([5]; S. pyogenes, 2 isolates, read-out: MIC (median)): 0.04 µg/mL (≈ 24.5 nM) | MIC [6]: > 64 µg/mL | MIC ([7]; ATCC29970, S. haemolyticus ATCC 29970, read-out: MIC): 0.015 µg/mL (≈ 9.19 nM) | MIC ([7]; S. haemolyticus, 1 isolate, read-out: MIC): 0.015 µg/mL (≈ 9.19 nM) | MIC ([8]; ATCC27337, P. anaerobius ATCC 27337, read-out: MIC): 0.008 µg/mL (≈ 4.9 nM) | MIC ([8]; P. anaerobius, 1 isolate, read-out: MIC): 0.008 µg/mL (≈ 4.9 nM) | MIC range [9]: 1 to 2 µg/mL | MIC ([9]; ATCC8176, M. catarrhalis ATCC 8176, read-out: MIC): 1 µg/mL (≈ 613 nM) | MIC ([9]; ATCC8193, M. catarrhalis ATCC 8193, read-out: MIC): 32 µg/mL (≈ 19600 nM) | MIC ([9]; M. catarrhalis MMX 3782, read-out: MIC): 1 µg/mL (≈ 613 nM) | MIC ([10]; ATCC25922, E. coli ATCC 25922, non-ESBL): > 64 µg/mL | MIC ([10]; E. coli MMX 5684, ESBL (TEM-10)): > 64 µg/mL | MIC:MBC ([11]; S. aureus MRSA, MBC median of n = 5): 1 | MIC:MBC ([11]; S. aureus MSSA, MBC on one organism): 1 | MIC:MBC ([11]; S. aureus VISA, MBC median of n = 2): 1 | MIC:MBC ([11]; S. aureus hVISA, MBC on one organism): 1 | MIC ([11]; ATCC13709 / MSSA, S. aureus ATCC 13709, MSSA): 0.015 µg/mL (≈ 9.19 nM) | MIC ([11]; ATCC29213 / MSSA, S. aureus ATCC 29213, MSSA): 0.008 µg/mL (≈ 4.9 nM) | MIC ([11]; ATCC43300 / MRSA, S. aureus ATCC 43300, MRSA): 0.008 µg/mL (≈ 4.9 nM) | MIC ([11]; ATCCBAA1556|MRSA|USA300, S. aureus ATCC BAA-1556, MRSA, USA300 (expanded panel)): 0.008 µg/mL (≈ 4.9 nM) | MIC ([11]; ATCCBAA1756|MRSA|NRS384|USA300, S. aureus NRS 384, ATCC BAA-1756, MRSA, USA300): 0.008 µg/mL (≈ 4.9 nM) | MIC ([11]; MRSA / NRS123 / USA400, S. aureus NRS123, MRSA, USA400): 0.008 µg/mL (≈ 4.9 nM) | MIC ([11]; MRSA / NRS725 / USA300, S. aureus NRS725, MRSA, USA300): 0.008 µg/mL (≈ 4.9 nM) | MIC ([11]; MRSA / USA300, S. aureus MMX 3982, MRSA, USA300): 0.008 µg/mL (≈ 4.9 nM) | MIC ([11]; MRSA, S. aureus MMX 5715, MRSA): 0.015 µg/mL (≈ 9.19 nM) | MIC ([11]; MRSA, S. aureus MMX 7899, MRSA): 0.008 µg/mL (≈ 4.9 nM) | MIC ([11]; MRSA, S. aureus MMX 7900, MRSA): 0.008 µg/mL (≈ 4.9 nM) | MIC ([11]; MRSA, S. aureus MMX 7901, MRSA): 0.008 µg/mL (≈ 4.9 nM) | MIC ([11]; MRSA, S. aureus MMX 7902, MRSA): 0.015 µg/mL (≈ 9.19 nM) | MIC ([11]; MRSA, S. aureus MMX 7903, MRSA): 0.008 µg/mL (≈ 4.9 nM) | MIC ([11]; MRSA, read-out: MIC (median), S. aureus MRSA, 12 isolates): 0.008 µg/mL (≈ 4.9 nM) | MIC ([11]; MSSA, S. aureus MMX 7907, MSSA): 0.008 µg/mL (≈ 4.9 nM) | MIC ([11]; MSSA, S. aureus MMX 7908, MSSA): 0.015 µg/mL (≈ 9.19 nM) | MIC ([11]; MSSA, read-out: MIC (median), S. aureus MSSA, 4 isolates): 0.012 µg/mL (≈ 7.35 nM) | MIC ([11]; NRS1 / VISA, S. aureus NRS1, VISA, Mu50): 0.06 µg/mL (≈ 36.8 nM) | MIC ([11]; NRS2, S. aureus NRS2, hVISA;Mu3): 0.015 µg/mL (≈ 9.19 nM) | MIC ([11]; NRS4 / VISA, S. aureus NRS4, VISA): 0.06 µg/mL (≈ 36.8 nM)
